Earlier results in US10993442B2, “Ultra-high loading glyphosate concentrate” (STEPAN COMPANY, priority 2008, dated 2021).
Structures can show the parent of a compound that is named as a salt.

Details: for Solubility in water, glyphosate acid equivalent: as acid equivalent; for Solubility in water: as salt

Compound | Solubility in water, glyphosate acid equivalent | Solubility in water | Water solubility (free acid form)
O=C(O)CNCP(=O)(O)O [glyphosate potassium salt] | about 50 % by weight glyphosate acid equivalent (a.e.) | about 61 % by weight | 
O=C(O)CNCP(=O)(O)O [glyphosate, N-phosphonomethylglycine] |  |  | low
CC(C)N.O=C(O)CNCP(=O)(O)O [isopropylamine salt of glyphosate] | about 47 % by weight glyphosate acid equivalent (a.e.) | about 63 % by weight | 
